Results as given in patent US8030354B2, “Substituted biphenyl GPR40 modulators” (Amgen Inc., priority 2007, dated 2011).

Assays:
[1] = target: T1, GPR40 (Homo sapiens, UniProt O14842); assay: Competition binding assay on A9 membranes expressing GPR40 with [3H] labeled Comparative Compound 1; parameters: expressed in transfected cells; host or cells: membranes of A9 cells expressing GPR40; settings: 5 nM radioligand, 4 hours, room temperature
Protocol: Competition binding assays were performed on A9 membranes expressing GPR40.

[2] = target: T1, GPR40; assay: Inositol phosphate accumulation assay (A9_GPR40 cells); type: cell-based; parameters: expressed in transfected cells; host or cells: CHO cells stably transfected with GPR40 and aequorin; settings: for agonist type in inositol phosphate accumulation assay: [3H] inositol accumulation after 1 hour, FIG. 3; for EC50: inositol phosphate assay, A9_GPR40 cells, 1 hour, read-out: IP3 EC50
Procedure, shortened: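 [^3H] inositol phosphate accumulation was measured by SPA after 1 h compound exposure at 37° C in HBSS/10 mM LiCl containing HSA, ending with a 20 mM formic acid quench. The GPR40-transfected A9 cells had first been labelled overnight (16 h) with 1 μCi/mL ^3H-inositol.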

[3] = target: T1, GPR40; assay: Displacement of 3H-labeled Comparative Compound 1 by unlabeled compounds; type: binding; parameters: expressed in transfected cells; host or cells: membranes of A9 cells expressing GPR40; settings: FIG. 1
[4] = target: T1, GPR40; assay: Inositol phosphate accumulation in response to compounds; type: cell-based; parameters: expressed in transfected cells; settings: FIG. 3; as a function of concentration; compared with Comparative Compound 1
From the text: FIG. 3 is a graph showing inositol phosphate accumulation in response to various compounds as a function of concentration.

[5] = target: T1, GPR40; assay: Cell-based aequorin assay (CHO cells stably expressing GPR40 and aequorin); parameters: expressed in transfected cells; host or cells: CHO cells stably transfected with GPR40 and aequorin; settings: for EC50: activation of human GPR40, CHO cells, 0.01% HSA
Procedure, shortened: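 CHO cells stably co-expressing GPR40 and aequorin, loaded with coelenterazine (1 ug/mL, 2 h, room temperature) in H/HBSS with 20 mM Hepes and 0.01% fatty acid-free HSA. Serially diluted compounds added; luminescence recorded over 20 s. EC50 from dose-response of maximum relative light units.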

[6] = system: fetal rat intestinal cells isolated from E19 rat embryos; assay: GLP-1 secretion into culture medium from fetal rat intestinal cells; type: cell-based; settings: FIG. 5-7; cultured cells treated with serial dilutions of compound
Protocol: (§1) FIG. 5 is a graph showing the concentration of GLP-1 secreted into culture medium as a function of the amount of Example compounds 14 and 69.8. The GLP-1 was secreted from fetal rat intestinal cells isolated from E19 rat embryos. The cultured cells were treated with serial dilutions of the indicated compounds, and GLP-1 secreted into the culture medium was determined.
as §1, with “6” for “5”, “compound 66.6.” for “compounds 14 and 69.8.”, “compound,” for “compounds,”
as §1, with “7” for “5”, “14, 66.17, 77.3,” for “14”, “83.1.” for “69.8.”

[7] = target: T1, GPR40; assay: Aequorin luminescence in response to compounds; type: cell-based; parameters: expressed in transfected cells; settings: FIG. 2; as a function of concentration; compared with fatty acid ligands
From the text: FIG. 2 is a graph showing Aequorin luminescence in response to various compounds as a function of concentration.

T1 sequence (O14842 whole entry): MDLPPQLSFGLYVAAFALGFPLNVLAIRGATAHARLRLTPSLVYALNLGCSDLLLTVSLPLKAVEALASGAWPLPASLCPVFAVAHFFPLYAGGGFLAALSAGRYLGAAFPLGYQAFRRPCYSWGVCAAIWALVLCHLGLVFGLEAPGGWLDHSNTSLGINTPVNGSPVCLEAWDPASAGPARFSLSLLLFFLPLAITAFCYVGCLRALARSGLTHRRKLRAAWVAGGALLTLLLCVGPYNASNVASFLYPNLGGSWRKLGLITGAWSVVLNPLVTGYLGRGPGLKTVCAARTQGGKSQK

| SMILES | displacement of bound [3H] labeled Comparative Compound 1 [1] | effect on binding of the radioligand (Comparative Compound 1) to the receptor [1] | agonist type in inositol phosphate accumulation assay [2] | EC50 [2] [nM] | displacement of 3H-labeled Comparative Compound 1 / total binding of 3H-labeled Comparative Compound 1 [3] | inositol phosphate accumulation [4] | EC50 [5] [nM] | concentration of GLP-1 secreted into culture medium [6] | agonist type in aequorin assay ([5]; compared with α-linolenic acid and docosahexaenoic acid, FIG. 2) | Aequorin luminescence [7] |
| --- | --- | --- | --- | --- | --- | --- | --- | --- | --- | --- |
| CCCCOc1cc(COc2cccc([C@@H](CC(=O)O)C3CC3)c2)ccc1-c1cc(OC)ccc1F (single isomer, unassigned) [Example 9, (3S)-3-(3-(((2-(Butyloxy)-2′-fluoro-5′-(methyloxy)-1,1′-biphenyl-4-yl)methyl)oxy)phenyl)-3-cyclopropylpropanoic acid or (3R)-3-(3-(((2-(butyloxy)-2′-fluoro-5′-(methyloxy)-1,1′-biphenyl-4-yl)methyl)oxy)phenyl)-3-cyclopropylpropanoic acid] | did not displace | enhanced the binding of the radioligand | potent full agonists | 100 to 1000 | enhanced the total binding | greater than Comparative Compound 1 | 100 to 1000 |  |  |  |
| COc1ccc(F)c(-c2ccc(COc3cccc([C@@H](CC(=O)O)C4CC4)c3)cc2C2=CCCC2(C)C)c1 (single isomer, unassigned) [Example 14, (3S)-3-Cyclopropyl-3-(3-(((2-(5,5-dimethyl-1-cyclopenten-1-yl)-2′-fluoro-5′-(methyloxy)-1,1′-biphenyl-4-yl)methyl)oxy)phenyl)propanoic acid or (3R)-3-cyclopropyl-3-(3-(((2-(5,5-dimethyl-1-cyclopenten-1-yl)-2′-fluoro-5′-(methyloxy)-1,1′-biphenyl-4-yl)methyl)oxy)phenyl)propanoic acid] | did not displace | enhanced the binding of the radioligand | potent full agonists | 10 to 100 | enhanced the total binding | greater than Comparative Compound 1 | 100 to 1000 | significantly stimulated GLP-1 secretion | potent full agonists | equivalent to naturally occurring fatty acid ligands |
